How the values were obtained:
Caco-2 cell monolayers = experiment: Bidirectional transport across Caco-2 cell monolayers; details: for PA-B: human, Caco-2, 180 min; for mean efflux ratio (PB-A/PA-B): silybin alone, no inhibitor; for lowest effective dosage for inhibiting efflux transport of silybin: silybin 10 μM
Protocol: Human colorectal adenocarcinoma-2 (Caco-2) cells was obtained from American Type Culture Collection (Manassas, Va.) and frozen at −80° C. For transport study, cells were cultured at 37° C./5% CO2 in Dulbecco's modified Eagle's medium supplemented with 10% fetal bovine serum, 1% nonessential amino acids, and 1% penicillin-streptomycin. […] The culture medium was changed 24 hours after seeding to remove cell debris and dead cells; after which the medium was changed on alternate days. Monolayers were used for transport assays between 21 and 23 days for Caco-2 cells. Prior to transport study, cell monolayers were certified based on internal criteria on transepithelial electrical resistance (TEER) values.
Prior to transport study, cell monolayers were certified based on our internal criteria on transepithelial electrical resistance (TEER) values, and only monolayers that met the acceptance criteria (transepithelial electrical resistance >500 Ω·cm^2 for Caco-2 cells and >200 Ω·cm^2 for MDCK cells) were selected for transport studies.
Bidirectional transport assays in human colorectal adenocarcinoma 2 (Caco-2) and Madin-Darby canine kidney II (MDCK II) was carried out by dosing substrates in assay buffer to either the apical chamber (A-to-B) or the basolateral chamber (B-to-A); cells were then incubated at 37° C. with shaking at 50 rotations per minute (rpm), and 100 μl samples were collected at 30, 60, 90, 120 and 180 minutes from the basolateral chamber to study the drug transport of AP to BL, or apical chamber to study the drug transport of BL to AP. Cell monolayers were then washed twice with ice-cold assay buffer and lysed with methanol on ice for 10 minutes. For inhibition studies, Caco-2 or MDCK II cell monolayers were pre-incubated with an inhibitor in both apical and basolateral chambers for 30 minutes, and bidirectional transport of 10 μM silybin was conducted in the absence (control) or presence of the inhibitor in both chambers. […] For fluorescence intensity detection, samples collected from AP or BL side were immediately detected in 96 well black plate by Microplate ultraviolet-visible spectroscopy (UV/VIS) spectrophotometer (TECAN infinite M200 PRO, Männedorf, Switzerland). In all cases, each determination was performed in triplicate.
The apparent permeability coefficients (Papp) were calculated as Papp=dQ/dt×1/(C“0”A) where dQ/dt (mM/sec) is the rate of permeation of the drug across the cells, C0 (millimolar (mM)) is the donor compartment concentration at time zero and A (cm^2) is the area of the cell monolayer. C0 is obtained from analysis of the dosing solution at the start experiment. Efflux Ratio (ER)=Papp (B to A)/Papp (A to B), while Papp (B−A) is the Papp value measured in the B to A direction, and Papp (A−B) is the Papp value measured in the A to B direction. 1.5 Preparation of Rat Sandwich-Cultured Hepatocytes

MRP2 = MRP2 (Homo sapiens, UniProt Q92887); type: in vitro ADME; design: host or cells: MDCKII (Madin-Darby canine kidney II); details: for mean net efflux ratio: Caco-2
Protocol: In all cases, each determination was performed in triplicate.
1.5 Preparation of Rat Sandwich-Cultured Hepatocytes

Caco-2 cells = experiment: Glucuronidation of silybin in Caco-2 cells (LC-MS peak area of silybin glucuronides); type: in vitro ADME, human; details: silybin 10 μM, test compound 20 μM co-incubation
Protocol: The analysis of silybin and total concentrations of glucuronides and sulfates was performed on an Agilent HP 1100 LC-MS system (Agilent, CA). A Waters ACQUITY UPLC® BEH C18 Column (1.7 μm, 2.1×50 mm, Waters Corp., Ireland) was used for detection with a C18 Security Guard cartridge (4×2.0 mm i.d., Phenomenex, Torrance, Calif.). Silybin A and silybin B were well separated using optimized gradient elution with methanol (mobile phase B) and 0.1% formic acid in water (mobile phase A) as mobile phase at a flow rate of 0.4 ml/min with a run time of 10 minutes. The gradient employed was as follows (time: mobile phase B percentage): 0 min: 25%, 6 minutes: 40%, 6.5 minutes: 25%.
MS parameters including: capillary voltage, −4000 V; nebulizer pressure, 40 pounds per square inch (psi); drying gas, 9 liters per minute (L/min); drying gas temperature, 325° C.; fragment voltage, 35 volts; dwell time, 200 milliseconds (ms); scan mode, selective ion monitoring (SIM) with [M-H]− for silybin (mass-to-charge ratio (m/z) 481), mono-glucuronide (m/z 657), and NG (m/z 271), respectively. LC-MS data were obtained by Agilent ChemStation Software.
Silybin is primarily metabolized to glucuronide (about 55%) and sulfate (about 28%) conjugates in human plasma after oral administration. To examine whether the co-incubation of flavonoids could affect the conjugation of silybin, the peak area of silybin glucuronides was measured by LC-MS (FIG. 6). Identification of glucuronides in the samples was based on their MS in-source fragmentations (m/z 657).

Chain of MRP2 (Q92887 whole entry): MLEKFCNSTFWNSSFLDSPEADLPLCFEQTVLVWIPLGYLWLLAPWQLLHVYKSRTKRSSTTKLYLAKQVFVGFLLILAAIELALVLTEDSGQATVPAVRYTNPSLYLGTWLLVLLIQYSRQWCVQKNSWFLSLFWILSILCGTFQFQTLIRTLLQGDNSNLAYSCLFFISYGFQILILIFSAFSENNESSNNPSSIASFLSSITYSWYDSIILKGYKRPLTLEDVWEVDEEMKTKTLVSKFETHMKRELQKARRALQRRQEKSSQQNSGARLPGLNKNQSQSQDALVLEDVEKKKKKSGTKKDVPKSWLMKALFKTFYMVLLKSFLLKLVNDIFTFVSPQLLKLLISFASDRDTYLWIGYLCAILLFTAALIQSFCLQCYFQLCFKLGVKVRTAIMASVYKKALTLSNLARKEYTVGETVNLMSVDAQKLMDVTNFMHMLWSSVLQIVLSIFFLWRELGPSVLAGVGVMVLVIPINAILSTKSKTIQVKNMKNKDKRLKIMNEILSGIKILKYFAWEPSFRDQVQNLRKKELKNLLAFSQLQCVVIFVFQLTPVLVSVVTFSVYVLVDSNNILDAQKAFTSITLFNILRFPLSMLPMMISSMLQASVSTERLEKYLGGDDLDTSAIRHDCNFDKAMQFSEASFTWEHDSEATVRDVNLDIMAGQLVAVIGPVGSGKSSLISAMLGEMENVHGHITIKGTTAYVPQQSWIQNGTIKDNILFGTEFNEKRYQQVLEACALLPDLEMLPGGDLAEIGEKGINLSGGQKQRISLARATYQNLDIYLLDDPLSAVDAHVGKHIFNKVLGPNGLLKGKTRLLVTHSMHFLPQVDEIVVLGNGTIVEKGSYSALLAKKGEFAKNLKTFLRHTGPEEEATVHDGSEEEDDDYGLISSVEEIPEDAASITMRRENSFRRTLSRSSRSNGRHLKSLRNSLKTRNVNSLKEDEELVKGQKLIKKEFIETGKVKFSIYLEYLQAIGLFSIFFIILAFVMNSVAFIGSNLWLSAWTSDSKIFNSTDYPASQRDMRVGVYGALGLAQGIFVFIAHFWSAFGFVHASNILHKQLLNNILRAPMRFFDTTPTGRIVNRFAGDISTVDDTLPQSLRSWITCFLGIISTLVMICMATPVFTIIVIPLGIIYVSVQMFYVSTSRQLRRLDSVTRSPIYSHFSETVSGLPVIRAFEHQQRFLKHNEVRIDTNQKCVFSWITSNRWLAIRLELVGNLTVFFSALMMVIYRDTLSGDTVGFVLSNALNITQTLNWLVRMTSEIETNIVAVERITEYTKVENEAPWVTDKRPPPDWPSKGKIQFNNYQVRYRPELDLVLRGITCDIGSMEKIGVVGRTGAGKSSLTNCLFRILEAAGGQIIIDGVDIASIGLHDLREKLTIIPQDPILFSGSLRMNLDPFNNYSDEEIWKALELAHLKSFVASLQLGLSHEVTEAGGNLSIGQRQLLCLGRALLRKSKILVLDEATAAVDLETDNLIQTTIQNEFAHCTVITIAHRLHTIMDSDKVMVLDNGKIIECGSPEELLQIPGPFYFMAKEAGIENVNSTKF

PA-B (Caco-2 cell monolayers)	mean efflux ratio (PB-A/PA-B) (Caco-2 cell monolayers)	mean net efflux ratio (MRP2)	Compound	lowest effective dosage for inhibiting efflux transport of silybin (Caco-2 cell monolayers) [µM]	effect on glucuronide metabolites / glucuronide conjugation of silybin (Caco-2 cells)	further results
0.47±0.03×10^−6 cm/s	5.05	3.06	COc1cc([C@H]2Oc3cc([C@H]4Oc5cc(O)cc(O)c5C(=O)[C@@H]4O)ccc3O[C@@H]2CO)ccc1O [silybin A]	–	–	–
–	–	–	COc1ccc(-c2cc(=O)c3c(OC)c(OC)c(OC)c(OC)c3o2)cc1 [tangeretin]	0.05	did not significantly inhibit the conjugation	effect on efflux of silybin (Caco-2 cell monolayers; 0.5 μM tangeretin, silybin 2.5 to 40 μM): Significant inhibitory effects
–	–	–	COc1cc(C2Oc3cc([C@H]4Oc5cc(O)cc(O)c5C(=O)[C@@H]4O)ccc3OC2CO)ccc1O (some centres unmarked) [silybin]	–	–	MRP2 substrate status (MRP2; dog, 180 min, 10 µM): is a MRP2 substrate
0.45±0.02×10^−6 cm/s	4.61	3.30	COc1cc([C@@H]2Oc3cc([C@H]4Oc5cc(O)cc(O)c5C(=O)[C@@H]4O)ccc3O[C@H]2CO)ccc1O [silybin B]	–	–	–
–	–	–	O=c1cc(-c2ccccc2)oc2cc(O)c(O)c(O)c12 [baicalein]	0.5	almost undetected	effect on efflux of silybin (Caco-2 cell monolayers; 5 μM baicalein, silybin at 40 μM): did not affect the efflux of silybin; effect on efflux of silybin (Caco-2 cell monolayers; 5 μM baicalein, silybin concentration below 30 μM): significantly inhibited the efflux of silybin

— patent US10265298B2, “Method of increasing the bioavailability of silybin” (Macau University of Science and Technology, priority 2017, dated 2019)
